PubChem BioAssay (NCI)
Several values for one entry are separate records, joined by “and”; a condition that tells them apart may be missing. Equal values may be shown once.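 The compound was tested at five concentrations on cells cultured in 96-well plates, with a 48-hour exposure period. GI50 = concentration required for 50% inhibition of growth. TGI is the concentration that stops growth completely.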

Tests used:
Assay in all cases: DTP human tumour cell line panel, 48 h
OVCAR-3 ovarian = test system: OVCAR-3 ovarian
OVCAR-5 ovarian = test system: OVCAR-5 ovarian
NCI/ADR-RES ovarian = test system: NCI/ADR-RES ovarian
HS 578T breast = test system: HS 578T breast
M14 melanoma = test system: M14 melanoma
SK-OV-3 ovarian = test system: SK-OV-3 ovarian
OVCAR-4 ovarian = test system: OVCAR-4 ovarian
KM12 colon = test system: KM12 colon
EKVX NSCLC = test system: EKVX NSCLC
NCI-H522 lung = test system: NCI-H522 lung

| SMILES | GI50 (OVCAR-3 ovarian) [µM] | TGI (OVCAR-3 ovarian) | GI50 (OVCAR-5 ovarian) [µM] | TGI (OVCAR-5 ovarian) [µM] | GI50 (NCI/ADR-RES ovarian) [µM] | TGI (NCI/ADR-RES ovarian) | GI50 (HS 578T breast) [µM] | TGI (HS 578T breast) [µM] | GI50 (M14 melanoma) [µM] | TGI (M14 melanoma) [µM] | GI50 (SK-OV-3 ovarian) [µM] | TGI (SK-OV-3 ovarian) [µM] | GI50 (OVCAR-4 ovarian) [µM] | TGI (OVCAR-4 ovarian) [µM] | GI50 (KM12 colon) [µM] | TGI (KM12 colon) [µM] | TGI (EKVX NSCLC) [µM] | TGI (NCI-H522 lung) [µM] | GI50 (NCI-H522 lung) [µM] | GI50 (EKVX NSCLC) [µM] |
| --- | --- | --- | --- | --- | --- | --- | --- | --- | --- | --- | --- | --- | --- | --- | --- | --- | --- | --- | --- | --- |
| Cc1cc(C)c(C#N)c(Sc2nc(C)c([N+](=O)[O-])c(C)c2C#N)n1 | 2.01 | 3.88 µM | 4.03 | 41.1 | 4.01 | 33.1 µM | 2.44 | 8.51 | 3.07 | 10.4 | 3.76 | 27.4 | 2.27 | 6.64 | 3.98 | 19 | – | – | – | – |
| Cc1ccc(C)c(N2C(=O)C(=O)C(c3nc4ccccc4o3)C(=O)C2=O)c1 | – | > 100 µM | – | – | – | – | – | – | – | > 100 | – | > 100 | – | > 100 | – | > 100 | > 100 | – | – | – |
| COc1ccc2nc(C(=O)c3ccccc3)c(C)cc2c1 | – | > 24.3 µM | – | > 100 | – | – | – | – | – | 13.4 | – | 15.8 | – | > 100 | – | > 45.8 | > 100 | 5.75 | – | – |
| O=C(C(=O)n1ncc(Cl)c(Cl)c1=O)n1ncc(Cl)c(Cl)c1=O | – | 68.2 µM | – | > 100 | – | – | – | – | – | > 68.7 | – | > 100 | – | 36.1 | – | > 100 | > 83.8 | 28.1 | – | – |
| Cc1c(C(=O)O)n(C)c(=O)n(C)c1=O | – | > 100 µM | – | > 100 | – | – | – | – | – | > 100 | – | > 100 | – | > 100 | – | > 100 | > 100 | > 100 | – | – |
| COc1ccc(-c2nc(-c3nc4ccc(C)cc4[nH]3)cc3c2[nH]c2ccccc23)cc1 | 3.59 | 12 µM | 6.83 | > 100 | 3.72 | > 100 µM | 4.94 | > 100 | 3.09 | 11.7 | 61 | > 100 | 4.09 | > 100 | 3.26 | 14 | – | 42.1 | 4.39 | – |
| Cc1cccc(C(=O)O)c1C(=O)c1cccc2ccccc12 | – | > 100 µM | – | > 100 | – | – | – | – | – | > 100 | – | > 100 | – | > 100 | – | > 100 | > 100 | > 100 | – | – |
| CCOC(=O)c1cc(-c2ccc(-c3cc(C(=O)OCC)c(C#N)c(N)c3C#N)cc2)c(C#N)c(N)c1C#N | – | > 100 µM | – | > 100 | – | – | – | – | – | > 100 | – | > 100 | – | > 100 | – | > 100 | > 100 | > 100 | – | – |
| N#CC(C(=O)CCCC(=O)Nc1ccc(Cl)cc1Cl)c1ccccc1 (configuration not stated) | – | > 100 µM | – | > 100 | – | – | – | – | – | > 100 | – | > 100 | – | > 100 | – | > 100 | > 100 | – | – | – |
| CC(C)c1cc(C(C)C)c(S(=O)(=O)N=[N+]=[N-])c(C(C)C)c1 | – | > 100 µM | – | > 100 | – | – | – | – | – | > 100 | – | > 100 | – | > 100 | – | > 100 | – | > 100 | – | – |
| CCCCCC(=O)Nc1nc2nc[nH]c2c(=O)[nH]1 | – | > 100 µM | – | > 100 | – | – | – | – | – | > 100 | – | > 100 | – | > 100 | – | > 100 | > 100 | > 100 | – | – |
| CSc1nc2nc3c(nc2c(=O)n1C)C(=O)c1ccccc1C3=O | 0.0378 | 0.21 µM | 0.199 | 0.355 | 0.253 | 0.938 µM | 0.226 | 0.678 | 0.0994 | 0.252 | 0.774 | 2.04 | – | – | 0.278 | 0.994 | – | 0.332 | 0.16 | – |
| COCCOc1cc(C)cc(/C=C(C)/C=C/C2=C(C)CCCC2(C)C)n1 | – | > 100 µM | – | > 100 | – | – | – | – | – | > 100 | – | > 100 | – | > 100 | – | > 100 | > 100 | > 100 | – | – |
| Cc1ccc(-c2nc(/C=N/Nc3cc(C)nc4ccc(Cl)cc34)c(C)o2)cc1 | 1.94 | 3.56 µM | 1.72 | 3.39 | 2.1 | 4.67 µM | – | – | 1.8 | 3.49 | 1.78 | 3.21 | 1.8 | 3.42 | 1.88 | 3.88 | 3.21 | – | – | 1.7 |
| NC1c2ccccc2Nc2ccccc21 | – | 28.9 µM | – | 25.6 | – | – | – | – | – | 15.4 | – | 23.6 | – | – | – | 17 | 20.7 | 5.2 | – | – |
| CCOC(=O)/C(=C/c1cccc(Cl)c1)N(CC)CC | – | – | – | > 100 | – | – | – | – | – | > 100 | – | > 100 | – | > 100 | – | > 100 | > 100 | 96.2 | – | – |
| CCCCCC(O)C(O)CCC[C@H](O)[C@H]1CC[C@H]([C@H]2CC[C@H]([C@H](O)CCCCCCCCCCCCC3=C[C@H](C)OC3=O)O2)O1 (some centres not stated) | 12.3 | 8.38 µM and 31.6 µM | – | 35.4 | 2.75 | 8.99 µM and 29.1 µM | – | – | 6.98 | 29.9 | – | – | – | 24.1 | 9.78 | 29.1 | 26.4 | 23.9 | – | 6.94 |
| O=C(NNc1ccc(Cl)cc1)C1CCC(CNS(=O)(=O)c2ccccc2Cl)CC1 (configuration not stated) | 8.68 | 39.8 µM | 17.3 | 55 | 15.5 | 50.7 µM | 65.2 | > 100 | 2.89 | 10.7 | – | – | – | – | 4.37 | 99.4 | 56.2 | 75.1 | 12.8 | 11 |
| CC1OC(=O)C(O)=C1O (configuration not stated) | – | > 100 µM | – | > 100 | – | – | – | – | – | > 100 | – | > 100 | – | > 100 | – | > 100 | > 100 | > 100 | – | – |
| Clc1ccc(-c2c3ccc(=[N+]4CCCCC4)cc-3oc3cc(N4CCCCC4)ccc23)cc1 | 0.132 | 0.274 µM | 0.145 | 0.323 | – | – | – | – | 0.0696 | 0.209 | 0.204 | 0.715 | – | – | – | – | – | – | – | – |
| COC1CC(O)C(OC(=O)c2ccccc2)C(C)O1 (configuration not stated) | – | > 100 µM | – | > 100 | – | – | – | – | – | > 100 | – | – | – | > 100 | – | > 100 | – | > 100 | – | – |
